Laboratory results taken from US20130090317A1 (priority 2011, published 2013).
Read-outs that look alike come from different tables or passages of the source.

Key:
rats suffering from TBI = conditions: moderate to severe TBI, 16 mg/kg, 72 hours post-injury, p<0.05 (FIG. 1); cited from earlier work
severe TBI patients = conditions: six months; cited from earlier work
[1] = system: rats that have suffered a concussion (mTBI); assay: Morris Water Maze latency to platform in mTBI (concussion) model; format: in vivo, rat; conditions: versus vehicle-injured rats (FIG. 8)
[2] = system: moderate to severe TBI patients; conditions: cited from earlier work
[3] = target: T1, classical progesterone receptor (PR) (Homo sapiens, UniProt P06401); conditions: cited from earlier work
T1 sequence (P06401 1-933): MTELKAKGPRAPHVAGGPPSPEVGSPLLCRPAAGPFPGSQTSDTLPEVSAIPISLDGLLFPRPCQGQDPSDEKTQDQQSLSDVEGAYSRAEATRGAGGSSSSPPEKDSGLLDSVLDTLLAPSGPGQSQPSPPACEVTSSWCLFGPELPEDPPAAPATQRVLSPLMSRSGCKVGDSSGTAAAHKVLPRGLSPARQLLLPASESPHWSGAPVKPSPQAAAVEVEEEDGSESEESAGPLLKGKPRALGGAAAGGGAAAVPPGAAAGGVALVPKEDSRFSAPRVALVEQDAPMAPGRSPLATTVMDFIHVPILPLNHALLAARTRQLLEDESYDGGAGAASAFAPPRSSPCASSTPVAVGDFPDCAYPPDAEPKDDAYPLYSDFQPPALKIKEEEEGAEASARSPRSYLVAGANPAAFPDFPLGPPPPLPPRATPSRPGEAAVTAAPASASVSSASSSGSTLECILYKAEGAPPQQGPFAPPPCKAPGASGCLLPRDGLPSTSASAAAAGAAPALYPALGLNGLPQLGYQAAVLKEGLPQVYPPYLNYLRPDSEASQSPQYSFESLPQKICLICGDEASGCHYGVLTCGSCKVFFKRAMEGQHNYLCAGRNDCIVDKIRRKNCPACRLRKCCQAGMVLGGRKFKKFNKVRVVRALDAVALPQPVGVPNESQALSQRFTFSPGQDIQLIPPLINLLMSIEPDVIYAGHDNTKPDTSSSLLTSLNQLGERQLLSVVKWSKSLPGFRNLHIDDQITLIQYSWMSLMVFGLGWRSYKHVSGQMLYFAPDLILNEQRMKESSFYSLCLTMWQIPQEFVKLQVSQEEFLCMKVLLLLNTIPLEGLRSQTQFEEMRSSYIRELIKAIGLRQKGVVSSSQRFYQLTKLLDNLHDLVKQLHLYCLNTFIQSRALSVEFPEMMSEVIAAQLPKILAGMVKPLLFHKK

glutathione reductase = conditions: 72 hours post-injury, p<0.01 (FIG. 2); cited from earlier work

Row | SMILES | brain water content (measure of edema) (rats suffering from TBI) | neurological outcomes long-term (severe TBI patients) | latency to platform, Morris Water Maze ([1]; Prog administered post-acutely (15 minutes post)) | latency to platform, Morris Water Maze ([1]; Prog administered prophylactically (15 minutes prior)) | 30 days post-injury outcomes (Glasgow Outcome Scale-Extended, Disability Rating Scale) ([2]; moderate TBI patients) | 30 days post-injury outcomes (Glasgow Outcome Scale-Extended, Disability Rating Scale) ([2]; patients with severe brain injuries) | activation of the classical progesterone receptor (PR) [3] | anti-oxidant activity of glutathione reductase (glutathione reductase)
1 | CC(=O)[C@H]1CC[C@H]2[C@@H]3CC[C@H]4C[C@H](O)CC[C@]4(C)[C@H]3CC[C@]12C [ALLO, allopregnanolone] | normalizes brain water content |  |  |  |  |  |  | 
2 | CC(=O)[C@H]1CC[C@H]2[C@@H]3CCC4=CC(=O)CC[C@]4(C)[C@H]3CC[C@]12C [Prog, progesterone] | normalizes brain water content | better neurological outcomes long-term | decreases latency to platform | decreases latency to platform | better outcomes | little measurable difference |  | 
3 | CC(=O)[C@@H]1CC[C@@H]2[C@H]3CCC4=CC(=O)CC[C@@]4(C)[C@@H]3CC[C@]21C [ent-Prog, ent-progesterone] | normalizes brain water content |  |  |  |  |  | does not activate the classical progesterone receptor (PR) | significantly increases the anti-oxidant activity of glutathione reductase compared to all other groups
